Measurements from patent US6762052B1, “DNA sequence encoding flavin-containing monooxygenase” (priority 1993, dated 2004).
Entries after “also recorded” stand apart in the source; their conditions may differ.

Biological target: T1, adult human liver flavin-containing monooxygenase (form 3) (Homo sapiens, UniProt P31513, E158K)
T1 sequence (P31513 1-532 E158K): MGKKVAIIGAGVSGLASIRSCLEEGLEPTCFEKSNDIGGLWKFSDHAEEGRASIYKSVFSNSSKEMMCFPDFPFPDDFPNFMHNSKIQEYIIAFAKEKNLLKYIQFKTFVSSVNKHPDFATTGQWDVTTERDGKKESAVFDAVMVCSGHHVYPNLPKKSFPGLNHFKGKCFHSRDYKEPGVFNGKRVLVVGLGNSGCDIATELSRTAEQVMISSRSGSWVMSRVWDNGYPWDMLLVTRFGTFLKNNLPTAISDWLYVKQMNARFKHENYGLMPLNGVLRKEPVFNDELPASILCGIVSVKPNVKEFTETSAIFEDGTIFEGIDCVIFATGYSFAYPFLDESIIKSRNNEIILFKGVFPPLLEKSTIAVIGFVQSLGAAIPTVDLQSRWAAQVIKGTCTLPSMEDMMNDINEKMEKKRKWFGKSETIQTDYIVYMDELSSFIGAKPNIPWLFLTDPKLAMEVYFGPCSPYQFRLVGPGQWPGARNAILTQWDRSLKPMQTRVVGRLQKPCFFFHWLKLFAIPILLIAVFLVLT
Assay: N- and S-oxygenation by cDNA-expressed HLFMO 3 (solubilized protein from E. coli transformed with pTrcHLFMO 3), HPLC
Experimental: In all cases examined, product formation was directly determined by HPLC analysis of organic extracts.
Competent NM522 Escherichia coli cells were transformed with the pTrc HLFMO 3 plasmid. […] After inoculation with a fresh overnight culture of NM522 containing pTrcHLFMO 3, the culture was grown at 37° C. until Abs600 was approximately 0.5 absorbance units. Finally, IPTG (0.8 mM) was added to the culture to induce expression of protein and the culture was left to grow overnight at 37° C.
The bacterial pellet was resuspended in 5 volumes of 50 mM potassium phosphate buffer (pH 8.4) containing 1% Triton X-100, 0.1% L-, α-phosphatidylcholine (L-α-lecithin) from egg yolk, 500 μM PMSF, and 1 mM EDTA. The mixture was sonicated and then centrifuged to remove cellular debris. As a control, bacterial lysate extracts from IPTG-induced pTrc99A-transformed NM522 cells (i.e., pTrc99A without the HLFMO 3 cDNA insert) were prepared under the same conditions.
Human liver samples were obtained from the Department of Surgery (UCSF) and with a protocol from the Medical College of Wisconsin (S. Wrighton).
A typical incubation mixture (final volume 0.25 ml) contained hepatic microsomes (0.4 mg of protein) or bacterial lysate (2.3 mg of protein), NADP^+ (0.5 mM), glucose-6-phosphate (2.0 mM), glucose-6-phosphate dehydrogenase (1 IU), DETAPAC (0.8 mM) and potassium phosphate buffer (50 mM, pH 8.4). Reactions were initiated by the addition of substrate and terminated at designated times by the addition of three volumes of cold dichloromethane, mixed thoroughly and centrifuged to separate the aqueous and organic fractions. N- and S-oxide metabolic products in the resulting organic extracts were separated and quantified by HPLC. […] Thiobenzamide and thiobenzamide S-oxide were quantified with this same, HPLC system employing a mobile phase of methanol/acetonitrile/60% perchloric acid (20:80:0.016, v/v) which gave retention volumes of 2.7 and 7.0 ml, respectively. […] The major metabolites formed in the incubations were also subjected to mass spectral analysis after extraction of isolated HPLC fractions.
RPLC of the S-oxide diastereomers with a Chiracel OT chiral analytical column (25 cm×0.15 cm inner diameter, Daicel Chemical Co., New York, N.Y.) was accomplished with a Beckman system, Kratos UV detector (240 nm) and a Hewlett Packard Integrator. […] Quantification was accomplished by comparing integrated HPLC peak areas after taking into account the difference in the extinction coefficients at 240 nm. Likewise, the cis and trans S-oxide diasteromers of (+)- and (−)-2-methyl-1,-benzodithiole were separated with a Chiracel OT chiral analytical column.

SMILES: CN(C)CCCCCN1c2ccccc2Sc2ccc(C(F)(F)F)cc21 [Compound 5]
- N-oxide formation, Expressed HFLMO (0.1 mM substrate, mean of 5 determinations ± SD): 200.0 ± 45.7 pmol/min/mg of protein
- N-oxygenase activity in the pellet (100,000×g pellet): 0.043 nmol/min/mg of protein
- share of N-oxygenase activity in the pellet (100,000×g pellet): 16%
- share of N-oxygenase activity in the supernatant fraction (100,000×g supernatant): 84%
- N-oxygenase activity in the supernatant fraction (100,000×g supernatant of solubilized recombinant HLFMO 3 protein): 0.23 nmol/min/mg of protein
- Vmax, Expressed HLFMO (N- or S-oxide formation, for the 4-bromophenyl-1,3-oxathiolanes formation of the trans S-oxide): 0.023 nmol/min/mg of protein
- substrate activity for human liver microsomes and expressed HLFMO 3, in words (human liver microsomes and solubilized protein from E. coli transformed with pTrcHLFMO 3): better substrates; also recorded: excellent substrates
- Km (read-out: Km, Expressed HLFMO, N- or S-oxide formation, for the 4-bromophenyl-1,3-oxathiolanes formation of the trans S-oxide): 64.6 µM
